According to ChEMBL document CHEMBL1132784, “Dibasic inhibitors of human mast cell tryptase. Part 2: structure-activity relationships and requirements for potent activity” (Bioorg Med Chem Lett, 2000):

Columns and labels:
Prothrombin = Prothrombin (Homo sapiens, UniProt P00734); assay: Compound was evaluated for its inhibitory potency against thrombin
Serine protease 1 = Serine protease 1 (Homo sapiens, UniProt P07477); assay: Compound was evaluated for its inhibitory potency against trypsin
Plasminogen = Plasminogen (Homo sapiens, UniProt P00747); assay: Compound was evaluated for its inhibitory potency against plasmin
Tryptase = Tryptase (Homo sapiens, UniProt Q9BZJ3+Q15661+Q9NRR2); assay: Evaluated for its inhibitory potency against tryptase; assay type: protein assay

Sequence of Serine protease 1 (P07477 whole entry): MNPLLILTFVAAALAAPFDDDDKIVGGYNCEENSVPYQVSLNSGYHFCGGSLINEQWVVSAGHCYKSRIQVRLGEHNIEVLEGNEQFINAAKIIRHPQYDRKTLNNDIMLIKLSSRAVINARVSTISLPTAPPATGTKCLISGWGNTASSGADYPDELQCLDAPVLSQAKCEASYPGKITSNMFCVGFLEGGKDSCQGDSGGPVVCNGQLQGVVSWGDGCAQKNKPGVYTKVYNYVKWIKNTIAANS
Sequence of Plasminogen (P00747 97-580 limits assumed): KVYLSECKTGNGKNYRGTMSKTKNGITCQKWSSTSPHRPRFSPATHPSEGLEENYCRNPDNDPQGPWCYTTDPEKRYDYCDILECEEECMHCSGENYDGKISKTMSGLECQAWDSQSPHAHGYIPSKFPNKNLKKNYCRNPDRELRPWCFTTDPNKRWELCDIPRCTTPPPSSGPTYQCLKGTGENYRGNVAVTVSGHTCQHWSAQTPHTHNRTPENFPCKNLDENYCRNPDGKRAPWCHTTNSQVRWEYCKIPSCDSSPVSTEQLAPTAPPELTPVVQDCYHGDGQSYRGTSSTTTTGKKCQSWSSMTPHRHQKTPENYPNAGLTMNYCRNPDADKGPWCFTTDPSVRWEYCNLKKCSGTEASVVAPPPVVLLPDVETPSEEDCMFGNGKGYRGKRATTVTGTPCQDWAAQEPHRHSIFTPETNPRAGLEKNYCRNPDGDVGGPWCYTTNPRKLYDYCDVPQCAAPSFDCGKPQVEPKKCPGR
Sequence of Plasminogen (P00747 581-810 limits assumed): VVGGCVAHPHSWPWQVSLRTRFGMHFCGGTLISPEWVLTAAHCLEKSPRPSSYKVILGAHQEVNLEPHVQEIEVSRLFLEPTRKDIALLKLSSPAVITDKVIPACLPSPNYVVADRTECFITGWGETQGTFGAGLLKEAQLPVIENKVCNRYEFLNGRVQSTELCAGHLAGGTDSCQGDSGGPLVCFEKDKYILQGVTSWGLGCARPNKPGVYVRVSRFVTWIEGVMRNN

N=C(N)Nc1ccc(CNC(=O)N2CCN(C(=O)O[C@H]3CCC[C@@H](OC(=O)N4CCN(C(=O)NCCc5ccncc5)CC4)CCC3)CC2)cc1
Ki (Prothrombin): > 1000 µM
Ki (Serine protease 1): 131 µM
Ki (Plasminogen): > 1000 µM
Ki (Tryptase): 0.9 µM

NC[C@H]1CC[C@H](CNC(=O)N2CCN(C(=O)O[C@H]3CCC[C@@H](OC(=O)N4CCN(C(=O)NC[C@H]5CC[C@H](CN)CC5)CC4)CCC3)CC2)CC1
Ki (Prothrombin): > 1000 µM
Ki (Serine protease 1): > 1000 µM
Ki (Plasminogen): > 1000 µM
Ki (Tryptase): 0.016 µM

N=C(N)Nc1ccc(CNC(=O)N2CCN(C(=O)O[C@H]3CCC[C@@H](OC(=O)N4CCN(C(=O)CCCCCn5ccnc5)CC4)CCC3)CC2)cc1
Ki (Prothrombin): > 1000 µM
Ki (Serine protease 1): 171 µM
Ki (Plasminogen): > 1000 µM
Ki (Tryptase): 0.03 µM

N=C(N)Nc1ccc(CNC(=O)N2CCN(C(=O)O[C@@H]3CO[C@H]4[C@@H]3OC[C@H]4OC(=O)N3CCN(C(=O)NCc4ccc(NC(=N)N)cc4)CC3)CC2)cc1
Ki (Prothrombin): 138 µM
Ki (Serine protease 1): 15 µM
Ki (Plasminogen): 700 µM

N=C(N)Nc1ccc(CCC(=O)N2CCN(C(=O)O[C@H]3CCC[C@@H](OC(=O)N4CCN(C(=O)CCc5ccc(NC(=N)N)cc5)CC4)CCC3)CC2)cc1
Ki (Prothrombin): 537 µM
Ki (Serine protease 1): > 1000 µM
Ki (Plasminogen): > 1000 µM
Ki (Tryptase): 0.21 µM

O=C(NCCC1CCNCC1)N1CCN(C(=O)O[C@H]2CCC[C@@H](OC(=O)N3CCN(C(=O)NCCC4CCNCC4)CC3)CCC2)CC1
Ki (Prothrombin): > 1000 µM
Ki (Serine protease 1): > 1000 µM
Ki (Plasminogen): > 1000 µM
Ki (Tryptase): 0.115 µM

N=C(N)Nc1ccc(CNC(=O)N2CCN(C(=O)O[C@H]3CCC[C@@H](OC(=O)N4CCN(C(=O)NCCCN)CC4)CCC3)CC2)cc1
Ki (Prothrombin): > 1000 µM
Ki (Serine protease 1): 138 µM
Ki (Plasminogen): > 1000 µM
Ki (Tryptase): 0.044 µM

N=C(N)Nc1ccc(CNC(=O)N2CCN(C(=O)O[C@H]3C[C@H]4C[C@@H](OC(=O)N5CCN(C(=O)NCc6ccc(NC(=N)N)cc6)CC5)C[C@H]4C3)CC2)cc1
Ki (Prothrombin): > 1000 µM
Ki (Serine protease 1): 4 µM
Ki (Tryptase): 0.028 µM

N=C(N)Nc1ccc(CNC(=O)N2CCN(C(=O)O[C@H]3CCC[C@@H](OC(=O)N4CCN(C(=O)CCCC5CCNCC5)CC4)CCC3)CC2)cc1
Ki (Prothrombin): > 1000 µM
Ki (Serine protease 1): 262 µM
Ki (Plasminogen): > 1000 µM
Ki (Tryptase): 0.004 µM

N=C(N)Nc1ccc(CNC(=O)N2CCN(C(=O)OC[C@H]3CC[C@H](COC(=O)N4CCN(C(=O)NCc5ccc(NC(=N)N)cc5)CC4)CC3)CC2)cc1
Ki (Serine protease 1): 28 µM
Ki (Plasminogen): > 1000 µM
Ki (Tryptase): 0.003 µM

N=C(N)Nc1ccc(CNC(=O)N2CCN(C(=O)O[C@H]3CCC[C@@H](OC(=O)N4CCN(C(=O)NC[C@H]5CC[C@H](N)CC5)CC4)CCC3)CC2)cc1
Ki (Prothrombin): > 1000 µM
Ki (Serine protease 1): 141 µM
Ki (Plasminogen): > 1000 µM
Ki (Tryptase): 0.001 µM

N=C(N)Nc1ccc(CNC(=O)N2CCN(C(=O)O[C@H]3CCC[C@@H](OC(=O)N4CCN(C(=O)CCc5ccc(N)nc5)CC4)CCC3)CC2)cc1
Ki (Prothrombin): > 1000 µM
Ki (Serine protease 1): 156 µM
Ki (Plasminogen): > 1000 µM
Ki (Tryptase): 0.18 µM

N=C(N)Nc1ccc(CNC(=O)N2CCN(C(=O)O[C@H]3CCC[C@@H](OC(=O)N4CCN(C(=O)NCCC5CCNCC5)CC4)CCC3)CC2)cc1
Ki (Prothrombin): > 1000 µM
Ki (Serine protease 1): 121 µM
Ki (Plasminogen): > 1000 µM
Ki (Tryptase): 0.003 µM

NCC12CCC(CNC(=O)N3CCN(C(=O)O[C@H]4CCC[C@@H](OC(=O)N5CCN(C(=O)NCC67CCC(CN)(CC6)CC7)CC5)CCC4)CC3)(CC1)CC2
Ki (Prothrombin): > 1000 µM
Ki (Serine protease 1): 95 µM
Ki (Plasminogen): > 1000 µM
Ki (Tryptase): 0.3 µM

CN(CCC1CCNCC1)C(=O)N1CCN(C(=O)O[C@H]2CCC[C@@H](OC(=O)N3CCN(C(=O)NCc4ccc(NC(=N)N)cc4)CC3)CCC2)CC1
Ki (Prothrombin): > 1000 µM
Ki (Serine protease 1): 126 µM
Ki (Plasminogen): > 1000 µM
Ki (Tryptase): 0.68 µM

NCc1ccc(CNC(=O)N2CCN(C(=O)O[C@H]3CCC[C@@H](OC(=O)N4CCN(C(=O)NCc5ccc(CN)cc5)CC4)CCC3)CC2)cc1
Ki (Prothrombin): > 1000 µM
Ki (Serine protease 1): 219 µM
Ki (Plasminogen): > 1000 µM
Ki (Tryptase): 0.0001 µM

O=C(NCc1ccccc1)N1CCN(C(=O)O[C@H]2CCC[C@@H](OC(=O)N3CCN(C(=O)NCc4ccccc4)CC3)CCC2)CC1
Ki (Tryptase): 101 µM

N=C(N)c1ccc(CCC(=O)N2CCN(C(=O)O[C@H]3CCC[C@@H](OC(=O)N4CCN(C(=O)CCc5ccc(C(=N)N)cc5)CC4)CCC3)CC2)cc1
Ki (Prothrombin): 29 µM
Ki (Serine protease 1): 21 µM
Ki (Plasminogen): 66 µM
Ki (Tryptase): 0.0004 µM

NCCc1ccc(CC(=O)N2CCN(C(=O)O[C@H]3CCC[C@@H](OC(=O)N4CCN(C(=O)Cc5ccc(CCN)cc5)CC4)CCC3)CC2)cc1
Ki (Prothrombin): > 1000 µM
Ki (Serine protease 1): > 1000 µM
Ki (Plasminogen): > 1000 µM
Ki (Tryptase): 0.002 µM

N=C(N)Nc1ccc(CNC(=O)N2CCN(C(=O)OCc3ccc(COC(=O)N4CCN(C(=O)NCc5ccc(NC(=N)N)cc5)CC4)cc3)CC2)cc1
Ki (Prothrombin): > 1000 µM
Ki (Serine protease 1): 17 µM
Ki (Plasminogen): > 1000 µM
Ki (Tryptase): 0.0004 µM

N=C(N)Nc1ccc(CNC(=O)N2CCN(C(=O)CCCCCC(=O)N3CCN(C(=O)NCc4ccc(NC(=N)N)cc4)CC3)CC2)cc1
Ki (Prothrombin): > 1000 µM
Ki (Serine protease 1): 52 µM
Ki (Plasminogen): > 1000 µM
Ki (Tryptase): 0.004 µM

N=C(N)Nc1ccc(CNC(=O)N2CCN(C(=O)O[C@H]3CCC[C@@H](OC(=O)N4CCN(C(=O)CCCn5ccnc5)CC4)CCC3)CC2)cc1
Ki (Prothrombin): > 1000 µM
Ki (Serine protease 1): 158 µM
Ki (Plasminogen): > 1000 µM
Ki (Tryptase): > 1000 µM

N=C(N)N1CCC(CCNC(=O)N2CCN(C(=O)O[C@H]3CCC[C@@H](OC(=O)N4CCN(C(=O)NCCC5CCN(C(=N)N)CC5)CC4)CCC3)CC2)CC1
Ki (Prothrombin): 112 µM
Ki (Serine protease 1): 850 µM
Ki (Plasminogen): 632 µM
Ki (Tryptase): 0.03 µM

N=C(N)Nc1ccc(CNC(=O)N2CCN(C(=O)O[C@H]3CCC[C@@H](OC(=O)N4CCN(C(=O)NC[C@H]5CC[C@@H](N)CC5)CC4)CCC3)CC2)cc1
Ki (Prothrombin): 274 µM
Ki (Serine protease 1): 171 µM
Ki (Plasminogen): > 1000 µM
Ki (Tryptase): 0.078 µM

NCCCCNC(=O)N1CCN(C(=O)O[C@H]2CCC[C@@H](OC(=O)N3CCN(C(=O)NCCCCN)CC3)CCC2)CC1
Ki (Prothrombin): > 1000 µM
Ki (Serine protease 1): > 1000 µM
Ki (Plasminogen): > 1000 µM
Ki (Tryptase): 0.51 µM

CN1CCC(CCNC(=O)N2CCN(C(=O)O[C@H]3CCC[C@@H](OC(=O)N4CCN(C(=O)NCc5ccc(NC(=N)N)cc5)CC4)CCC3)CC2)CC1
Ki (Prothrombin): 269 µM
Ki (Serine protease 1): 110 µM
Ki (Plasminogen): > 1000 µM
Ki (Tryptase): 3 µM

N=C(N)N1CCC(CNC(=O)N2CCN(C(=O)O[C@H]3CCC[C@@H](OC(=O)N4CCN(C(=O)NCC5CCN(C(=N)N)CC5)CC4)CCC3)CC2)CC1
Ki (Prothrombin): 146 µM
Ki (Serine protease 1): > 1000 µM
Ki (Plasminogen): > 1000 µM
Ki (Tryptase): 0.61 µM

N=C(N)Nc1ccc(CNC(=O)N2CCN(C(=O)O[C@H]3CCC[C@@H](OC(=O)N4CCN(C(=O)NCCCC5CCNCC5)CC4)CCC3)CC2)cc1
Ki (Prothrombin): > 1000 µM
Ki (Serine protease 1): 80 µM
Ki (Plasminogen): > 1000 µM
Ki (Tryptase): 0.24 µM

N=C(N)Nc1ccc(CNC(=O)N2CCN(C(=O)O[C@H]3CCC[C@@H](OC(=O)N4CCN(C(=O)NCc5ccccc5)CC4)CCC3)CC2)cc1
Ki (Tryptase): 15 µM

N=C(N)Nc1ccc(CNC(=O)N2CCN(C(=O)O[C@H]3CCC[C@@H](OC(=O)N4CCN(C(=O)CCCCn5ccnc5)CC4)CCC3)CC2)cc1
Ki (Prothrombin): > 1000 µM
Ki (Serine protease 1): 144 µM
Ki (Plasminogen): > 1000 µM
Ki (Tryptase): 1 µM

N=C(N)Nc1ccc(CNC(=O)N2CCN(C(=O)O[C@H]3CCC[C@@H](OC(=O)N4CCN(C(=O)NCCCCN)CC4)CCC3)CC2)cc1
Ki (Prothrombin): > 1000 µM
Ki (Serine protease 1): 132 µM
Ki (Plasminogen): > 1000 µM
Ki (Tryptase): 0.004 µM
